Measured values taken from patent US7323598B2, “Preparation of xylylenediamine (XDA)” (BASF Aktiengesellschaft, priority 2003, dated 2008).

Assay: Investigations of solubility of IPN in different solvents
Format: physicochemical
Details: for solubility of IPN in NMP: solvent NMP; for solubility of IPN in mesitylene: solvent mesitylene; for solubility of IPN in pseudocumene: solvent pseudocumene
Experimental: Investigations of Solubility of IPN in Different Solvents
At 60° C., the solubility of IPN in mesitylene or pseudocumene is in each case below 10% by weight.

N#Cc1cccc(C#N)c1 [IPN, 1,3-dicyanobenzene]
solubility of IPN in NMP (60° C.): approx. 26 % by weight | solubility of IPN in NMP (90° C.): approx. 41 % by weight | solubility of IPN in mesitylene (60° C.): below 10 % by weight | solubility of IPN in mesitylene (90° C.): 12 % by weight | solubility of IPN in pseudocumene (60° C.): below 10 % by weight | solubility of IPN in pseudocumene (90° C.): 20 % by weight
